In ChEMBL document CHEMBL4619780, “Structure-Activity Relationship Studies of Retro-1 Analogues against Shiga Toxin” (J Med Chem, 2020):

Test: cells
Type: cell-based
Details: Escherichia coli, HeLa

Row | Compound | EC50
1 | Cc1ccc(C2Nc3ccccc3C(=O)N2c2ccccc2)s1 (configuration not stated) | 27.3 µM
2 | CCC(=O)N1CC(=O)Nc2ccc(Br)cc2C1c1ccccc1 (racemic) | 6.2 µM

Test: cells
Type: cell-based
Details: Escherichia coli, HeLa
Remark: another data set of the same source

Row | Compound | EC50
3 | C[C@H]1CCC/C=C/[C@@H]2C[C@H](O)C[C@H]2[C@H](O)/C=C/C(=O)O1 [BREFELDIN A] | 5 µM

Test: cells
Type: cell-based
Details: Escherichia coli, HeLa
Remark: another data set of the same source

Row | Compound | EC50
4 | CC[C@@H](C(=O)[C@@H](C)[C@@H](O)[C@H](C)CCc1ccc(C)c(O)c1C(=O)O)[C@H]1O[C@](CC)([C@H]2CC[C@](O)(CC)[C@H](C)O2)C[C@@H]1C [LASALOCID] | 2 µM

Test: Inhibition of Escherichia coli shiga toxin
Details: not given

Row | Compound | EC50
5 | Cc1cccc(C)c1Nc1c(-c2cc(Br)ccc2O)nc2[nH]cnn12 | 25 µM
6 | O=[N+]([O-])c1ccc(CSc2ncnc3c2ncn3[C@@H]2O[C@H](CO)[C@@H](O)[C@H]2O)cc1 [NITROBENZYLMERCAPTOPURINE RIBONUCLEOSIDE] | 25 to 100 µM
7 | CC/C(=C(\c1ccccc1)c1ccc(OCCN(C)C)cc1)c1ccccc1 [TAMOXIFEN] | 2 to 10 µM
8 | CC1(C)CC(/C=C/c2ccccc2)=Nc2ccccc2N1 | 50 µM

Test: cells
Type: cell-based
Details: Escherichia coli, HeLa
Remark: another data set of the same source

Row | Compound | EC50
9 | O=C1CN(C2CCCC2)C(c2ccccc2)c2cc(Cl)ccc2N1 (configuration not stated) | 0.844 µM
10 | C#CCCN1CC(=O)Nc2ccc(Br)cc2C1c1ccccc1 (configuration not stated) | 6.5 µM
11 | CCCN1CC(=O)Nc2ccc(Br)cc2C1c1ccccc1 (configuration not stated) | 3.98 µM
12 | CCCN1CC(=O)Nc2ccc(Cl)cc2C1c1ccccc1 (configuration not stated) | 12.8 µM
13 | CCCN1CC(=O)Nc2ccc(Br)cc2C1c1ccc(F)cc1F (configuration not stated) | 12.8 µM
14 | O=C1CN(C2CCCC2)C(c2ccccc2)c2cc(I)ccc2N1 (racemic) | 0.281 µM
15 | CC1CCCC1N1CC(=O)Nc2ccc(Br)cc2C1c1ccccc1 (mixture of isomers) | 3.91 µM
16 | CC(C1CC1)N1CC(=O)Nc2ccc(Br)cc2C1c1ccccc1 (mixture of isomers) | 5.16 µM
17 | O=C1CN(C2CCCC2)C(c2ccccc2)c2cc(F)ccc2N1 (configuration not stated) | 2.29 µM
18 | CCCC(=O)N1CC(=O)Nc2ccc(Br)cc2C1c1ccccc1 (configuration not stated) | 10.9 µM
19 | CCCN1CC(=O)Nc2ccc(Br)cc2C1c1ccccc1F (configuration not stated) | 3.87 µM
20 | CC1CCC(N2CC(=O)Nc3ccc(Br)cc3C2c2ccccc2)C1 (mixture of isomers) | 1.29 µM
21 | O=C1CN(C2CCCC2)[C@H](c2ccccc2)c2cc(I)ccc2N1 | 0.09 µM
22 | O=C1CN(C2CCCCC2)C(c2ccccc2)c2cc(Br)ccc2N1 (configuration not stated) | 4.7 µM
23 | CCCN1CC(=O)Nc2ccc(I)cc2C1c1ccccc1 (configuration not stated) | 1.98 µM
24 | O=C1CN(C2CCCC2)C(c2ccccc2)c2ccccc2N1 (configuration not stated) | 6.11 µM
25 | O=C1CN(C2CCCC2)C(c2ccccc2)c2cc(Br)ccc2N1 (configuration not stated) | 0.6 µM
26 | CCCN1CC(=O)Nc2ccc(N=[N+]=[N-])cc2C1c1ccccc1 (configuration not stated) | 11.1 µM
27 | CCN1CC(=O)Nc2ccc(Br)cc2C1c1ccccc1 (configuration not stated) | 8.81 µM
